The results in this text go back to patent US11248006B2, “Macrocyclic derivative of pyrazol[3,4-d]pyrimidin-3-one, pharmaceutical composition and use thereof” (SHANGHAI DE NOVO PHARMATECH CO., LTD., priority 2017, dated 2022).

By IC50 is commonly meant the midpoint of a concentration-inhibition curve. A lower IC50 goes with greater potency.

The subject of assay [1] is Human osteosarcoma cell line MG63. The assay can be described thus: Cell proliferation assay (CCK-8 cell viability). The note with it: CCK-8, 72 hours incubation. In kind it is cell-based. Here is the method: In the present disclosure, cell assays were used to assess the biological activity of the compound. Human osteosarcoma cell line MG63 (ATCC CRL-1427) was cultured in a 96-well plate of Dulbecco's Modified Eagle's medium, supplemented with 10% fetal bovine serum and 1% (v/v) L-glutamine, and the cultivation environment was 37° C. and 5% CO2. Compound concentrations ranged from 4.5 nM to 30 μM. The Wee1 inhibitor stock solution was dissolved in DMSO, added to the medium with an indicated concentration and incubated for 72 hours. Negative control cells were only treated with vehicle. In some assays, a known Wee1 inhibitor was added as a positive control. Cell viability was measured using a Cell Counting Kit-8 (CCK-8, Sigma-Aldrich) under the instruction of the product specification. The data was analyzed using Graphpad software to obtain a fitted curve of IC50 values against the compounds.

Assay [2] has as its target T1, Wee1 (Homo sapiens (Human), UniProt P30291). As to the kind of experiment: Wee1 enzyme catalysis assay (ATP-Glo Max kinase luminescence detection kit). The note with it: Wee1 enzymatic activity, 10 μM ATP, Poly (Lys, Tyr) substrate, 30° C. for 50 minutes. In kind it is biochemical. As for the experimental part:
In the present disclosure, Wee1 enzyme catalysis assay was carried out using the ATP-Glo Max kinase luminescence detection kit (Promega). Kinase activity was assessed by quantitative detection of the amount of ATP retained in the solution following the kinase reaction. The luminescent signal in the assay is proportional to the amount of ATP and inversely proportional to the kinase activity. The concentration of the compound in the assay ranged from 0.5 nM to 30 μM. The compound was dissolved in 10% DMSO, and 5 μL of the solution was added to 50 μL of the reaction, and the concentration of DMSO in the final reaction was 1%. The reaction was carried out at 30° C. for 50 minutes. 40 mM trishydroxymetyl aminomethane, pH 7.4, 10 mM MgCl2, 0.1 mg/ml BSA, 2 mM DTT, 0.1 mg/ml Poly (Lys, Tyr) substrate, 10 μM ATP and Wee1 were contained in the reaction mixture. After the enzymatic reaction, 50 μL of ATP-Glo Max kinase luminescence detection assay solution (Promega) was added and incubated for 15 minutes at room temperature. The luminescent signal was measured using a microplate reader. In some assays, a known Wee1 inhibitor was added as a positive control. Luminance data was analyzed using Graphpad software. The difference between the luminescence intensity in the absence of Wee1 and the luminescence intensity in the presence of Wee1 was defined as 100% activity (Lut−Luc). Using the luminescence intensity signal (Lu) in the presence of the compound, the % activity was calculated as follows: % Activity={(Lut−Lu)/(Lut−Luc)}×100%, wherein, Lu=luminous intensity of the compound Non-linear regression analysis was employed to plot the dose-effect curve of % activity value and the corresponding concentrations for the series of compounds. The equation is Y=B+(TB)/1+10((Log EC50−X)×Hill Slope), Y=% activity, B=minimum activity percentage, T=maximum activity percentage, X=logarithm of compound and Hill slope=slope factor or Hill coefficient. The IC50 value was determined by the concentration of a compound that is required to obtain 50% of the maximum effect.

For assay [3], the target named is T1, Wee1. As to the kind of experiment: Cell activity of Wee1 by p-CDK1Y15 ELISA assay in WiDr cells. In kind it is cell-based. The note with it: amount of p-CDK1Y15, human colon adenocarcinoma cell line WiDr, 24 hours incubation. As for the experimental part: In the present disclosure, cellular assays were used to assess the biological activity of the compound. This assay was conducted using the human colon adenocarcinoma cell line WiDr. The activity of a specific Wee1 inhibitor was evaluated using p-CDK1Y15 ELISA assay method. The detailed assay method is described as follows:
WiDr cells were cultured in Dulbecco's Modified Eagle's medium containing 10% FBS at 37° C. and 5% CO2. Compound concentrations ranged from 0.5 nM to 30 μM. The compound was diluted, added to a 24-well plate and incubated with the cells for 24 hours. DMSO was used as a negative control. A known Wee1 inhibitor was added as a positive control in some assays. According to the instruction of the manufacturer, in the p-CDK1Y15 assay, cells were lysed and tested by a colorimetric ELISA kit to determine the amount of p-CDK1Y15. The optical density was measured using a spectrophotometer. The OD data was analyzed using Graphpad software to obtain a fitted curve of IC50 values against the compounds.
A general note: In an ELISA, binding on a coated surface is turned into a signal by an enzyme label.

T1 sequence (P30291 whole entry): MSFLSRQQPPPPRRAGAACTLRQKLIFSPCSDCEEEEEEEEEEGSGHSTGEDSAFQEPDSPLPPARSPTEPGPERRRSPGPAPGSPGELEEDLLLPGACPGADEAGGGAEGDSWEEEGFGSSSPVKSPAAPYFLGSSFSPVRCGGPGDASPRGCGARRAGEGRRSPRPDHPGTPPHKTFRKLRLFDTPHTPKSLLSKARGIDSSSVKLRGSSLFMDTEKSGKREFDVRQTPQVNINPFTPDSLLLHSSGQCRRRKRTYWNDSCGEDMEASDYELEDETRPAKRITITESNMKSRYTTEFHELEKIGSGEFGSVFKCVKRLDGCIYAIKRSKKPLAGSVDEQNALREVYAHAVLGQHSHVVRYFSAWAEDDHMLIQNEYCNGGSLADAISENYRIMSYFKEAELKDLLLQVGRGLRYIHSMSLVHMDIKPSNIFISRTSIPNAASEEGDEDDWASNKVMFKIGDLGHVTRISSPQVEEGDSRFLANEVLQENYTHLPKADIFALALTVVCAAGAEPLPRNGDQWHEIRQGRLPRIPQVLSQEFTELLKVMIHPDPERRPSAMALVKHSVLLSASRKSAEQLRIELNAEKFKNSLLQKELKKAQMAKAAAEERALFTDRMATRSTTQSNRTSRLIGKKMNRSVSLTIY

For the compound `CN1CCn2c(cc3cc(Nc4ncc5c(=O)n6n(c5n4)-c4ccc5c(n4)N(CCC/C=C\C6)C(=O)CO5)ccc32)C1` [Compound 3-7-8], the concentration for half-maximal inhibition (IC50) in assay [1] (Homo sapiens, MG-63, 72 h) stood at 654 nM; in assay [2], 12.3 nM.
For `CN1CCC(n2ccc3cc(Nc4ncc5c(=O)n6n(c5n4)-c4ccc5c(n4)N(CCC/C=C\C6)C(=O)CO5)ccc32)C1` (centres unmarked) [Compound 3-7-6], in that order: 554 nM and 9.6 nM.
Take `CN1CCC(n2ccc3cc(Nc4ncc5c(=O)n6n(c5n4)-c4ccc5c(n4)N(CCC/C=C\C6)C(=O)CO5)ccc32)CC1` [Compound 3-7-5]: the IC50 in assay [3] was 38.8 nM; in assay [1] (Homo sapiens, MG-63, 72 h), 60.4 nM; in assay [2] it was 3.9 nM.
For `CN1CCN(c2ccc(Nc3ncc4c(=O)n5n(c4n3)-c3ccc4c(n3)N(CCC/C=C\C5)C(=O)CO4)cc2)CC1` [Compound 3-3-7], in that order: 250 nM, 571 nM and 13 nM.
`CC(=O)N1CCC/C=C\Cn2c(=O)c3cnc(Nc4ccc5c(c4)CN(C)CC54CC4)nc3n2-c2cccc1n2` [Compound 2-2-1]: the IC50 is 439 nM in assay [1] (Homo sapiens, MG-63, 72 h) and 3.7 nM in assay [2].
As for `CN1CCN(c2ccc(Nc3ncc4c(=O)n5n(c4n3)-c3ccc4c(n3)N(CCC/C=C\C5)C(=O)CO4)cc2CO)CC1` [Compound 3-3-1], the IC50 in assay [1] was determined as 295 nM; in assay [2], 5.5 nM.
For `C=CCn1c(=O)c2cnc(SC)nc2n1-c1ccc2c(n1)N(CCCC#CCOC1CCCCO1)C(=O)CO2` (centres unmarked) [Compound 10-1-1], in that order: 490 nM and 9.9 nM.
Turning to `COc1cc(Nc2ncc3c(=O)n4n(c3n2)-c2ccc3c(n2)N(CCC/C=C\C4)C(=O)CO3)cc(N2CCN(C)CC2)c1` [Compound 3-3-13], the IC50 was found to be 68.8 nM in assay [3] and 82 nM in assay [1] (Homo sapiens, MG-63, 72 h).
Take `CN1CCN(c2ccc(Nc3ncc4c(=O)n5n(c4n3)-c3cccc(n3)OCCCC/C=C/C5)cc2)CC1` [Compound 1-1-1]: the IC50 in assay [1] was 2400 nM; in assay [2] it was 6.7 nM.
Regarding `CN1Cc2cc(Nc3ncc4c(=O)n5n(c4n3)-c3ccc4c(n3)N(CC/C=C\C5)C(=O)CO4)ccc2C2(CC2)C1` [Compound 3-2-3], the figures for the half-maximal inhibitory concentration (IC50) in assay [3] and in assay [2] were 326 nM and 7.6 nM, respectively.
On to `CN1CCN(c2cc(Nc3ncc4c(=O)n5n(c4n3)-c3ccc4c(n3)N(CCC/C=C\C5)C(=O)CO4)cc3c2ccn3C)CC1` [Compound 3-7-16], for which the IC50 in assay [3] came to 31.4 nM; in assay [1] (Homo sapiens, MG-63, 72 h) it was 99.1 nM.
`CC(C)(C)OC(=O)N1CCC(n2ccc3cc(Nc4ncc5c(=O)n6n(c5n4)-c4ccc5c(n4)N(CCC/C=C\C6)C(=O)CO5)ccc32)CC1` [Compound 3-7-3]: the IC50 in assay [3] was 80.6 nM; in assay [1] it was 222 nM; in assay [2], 9.5 nM.
For `CC(C)N1CCC(n2ccc3cc(Nc4ncc5c(=O)n6n(c5n4)-c4ccc5c(n4)N(CCC/C=C\C6)C(=O)CO5)ccc32)CC1` [Compound 3-7-7], in that order: 51.4 nM, 44.3 nM and 6.6 nM.
With `CN1CCC(c2c[nH]c3cc(Nc4ncc5c(=O)n6n(c5n4)-c4ccc5c(n4)N(CCC/C=C\C6)C(=O)CO5)ccc23)CC1` [Compound 3-7-13], the IC50 in assay [3] amounted to 114 nM; in assay [1] (Homo sapiens, MG-63, 72 h), 150 nM.
For `COc1cc(Nc2ncc3c(=O)n4n(c3n2)-c2ccc3c(n2)N(CCC/C=C\C4)C(=O)CO3)ccc1N1CCN(C)CC1` [Compound 3-3-2], the IC50 in assay [3] amounted to 114 nM; in assay [1] (Homo sapiens, MG-63, 72 h), 567 nM; in assay [2], 3.3 nM.
Regarding `C=CCCCCN1C(=O)COc2ccc(-n3c4nc(SC)ncc4c(=O)n3CC=C)nc21` [Compound 3-1-1], the IC50 in assay [3] stood at 336 nM; in assay [1], 1150 nM; in assay [2] it was 4.9 nM.
For the compound `CN1Cc2cc(Nc3ncc4c(=O)n5n(c4n3)-c3ccc4c(n3)N(CCO4)C(=O)CC/C=C\C5)ccc2C2(CC2)C1` [Compound 8-1-2], the IC50 worked out at 323 nM in assay [1] (Homo sapiens, MG-63, 72 h) and 4.4 nM in assay [2].
Regarding `CN1Cc2cc(Nc3ncc4c(=O)n5n(c4n3)-c3ccc4c(n3)N(CCC/C=C\C5)C(=O)CO4)ccc2C2(CC2)C1` [Compound 3-2-2], the IC50 amounted to 139 nM in assay [3], 261 nM in assay [1] and 11 nM in assay [2].
As to `CN1Cc2cc(Nc3ncc4c(=O)n5n(c4n3)-c3cccc(n3)OCC/C=C\C5)ccc2C2(CC2)C1` [Compound 1-2-1], the concentration for half-maximal inhibition (IC50) was 593 nM in assay [1] (Homo sapiens, MG-63, 72 h) and 5.4 nM in assay [2].
For `CN1Cc2cc(Nc3ncc4c(=O)n5n(c4n3)-c3ccc4c(n3)N(CCC/C=C\C5)C(=O)CO4)ccc2C(C)(C)C1` [Compound 3-5-1], in that order: 232 nM and 2.4 nM.
For `O=C1COc2ccc3nc2N1CCC/C=C\Cn1c(=O)c2cnc(Nc4ccc5c(ccn5C5CCN(CCO)CC5)c4)nc2n1-3` [Compound 3-7-10], in that order: 56.4 nM and 8.5 nM.
Turning to `CC(C)N1CCC(n2ccc3cc(Nc4ncc5c(=O)n6n(c5n4)-c4ccc5c(n4)N(CCC/C=C\C6)C(=O)CO5)ccc32)CC1` [Compound 3-7-15], the IC50 amounted to 211 nM in assay [1] and 7.9 nM in assay [2].
For `CC(C)(C)OC(=O)N1Cc2cc(Nc3ncc4c(=O)n5n(c4n3)-c3ccc4c(n3)N(CCC/C=C\C5)C(=O)CO4)ccc2C(C)(C)C1` [Compound 3-5-2], the IC50 in assay [1] is 327 nM; in assay [2] it was 6.1 nM.
